The source of these data is patent US11583532B2, “Triazolopyrimidine derivatives for use as ghrelin o-acyl transferase (GOAT) inhibitors” (Boehringer Ingelheim International GmbH, priority 2018, dated 2023).

For orientation: IC50 means the point on the concentration scale where inhibition reaches its midpoint.

The target in the test is human GOAT (ghrelin O-acyl transferase) (Homo sapiens (Human), UniProt Q96T53). The test can be described thus: Determination of hGOAT activity in HEK293 cells after incubation with test compound (acyl-ghrelin ELISA). It counts as cell-based. The conditions noted are these: HEK293 cells stably transfected with preproghrelin and human GOAT cDNA; octanoate-BSA 100 μM; 5 hours incubation; acyl-ghrelin in medium by ELISA; 8 compound concentrations. The method, then: Determination of hGOAT Activity in HEK293 Cells after incubation with test compound
Sequence of human GOAT (ghrelin O-acyl transferase) (Q96T53 whole entry): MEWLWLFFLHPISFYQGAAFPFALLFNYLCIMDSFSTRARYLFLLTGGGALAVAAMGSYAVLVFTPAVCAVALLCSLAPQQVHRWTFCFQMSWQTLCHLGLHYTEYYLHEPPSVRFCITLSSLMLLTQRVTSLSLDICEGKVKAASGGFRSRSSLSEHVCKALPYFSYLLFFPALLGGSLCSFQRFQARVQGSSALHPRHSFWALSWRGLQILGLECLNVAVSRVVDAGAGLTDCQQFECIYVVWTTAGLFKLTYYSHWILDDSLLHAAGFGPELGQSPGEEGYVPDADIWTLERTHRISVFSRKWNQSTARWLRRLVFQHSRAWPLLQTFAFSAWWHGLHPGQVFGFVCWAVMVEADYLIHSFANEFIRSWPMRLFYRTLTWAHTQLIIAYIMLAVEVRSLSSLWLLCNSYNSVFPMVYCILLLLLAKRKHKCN
HEK293 cells stably transfected with two expression vectors, one coding for preproghrelin cDNA and a second for the expression of human GOATcDNA are used as a cellular model. After feeding the cells with octanoic acid for 5 hours, acyl-ghrelin is measured in cell culture medium by an ELISA procedure.
Cellline: Hek293 hGOAT/PPGhrl Clone #1B8Sodium octanoate, Sigma, Cat.-No. C5038
BSA: Sigma, Cat.-No. A8806
BD Poly-D-Lysin 384-well Plates, black-clear polystyrene BD Bioscience Cat.-No. […] ELISA human acylated Ghrelin Kit purchased from Bertin Pharman (detailed composition of buffers e.g. wash-puffer, ELISA buffer not known)
All further reagents used were of highest analytical grade available.
Cells are plated with a density of 5000 cells/well in 384-well poly-D-lysin plates and incubated for 1 day at 37° C., 5% CO2 in DMEM medium, 10% FCS, 1×NEAA, Puromycin (0.5 μg/ml) and G418 (1 mg/ml). Then the medium is changed to a identical medium without FCS and containing Octanoate-BSA (final concentration 100 μM each) and compound in DMSO (final DMSO concentration 0.3%). After incubation for 5 hours acylghrelin in the medium is measured by ELISA.
The medium sample is diluted 1:25 in Elisa buffer, a 25 μl aliquot is transferred to a 384-well ELISA plate previously washed 4 times with 100 μL wash buffer, and 25 μl tracer-solution is added. After incubation overnight (˜20 h) at 4° C. temperature the plate is washed 4 times with 100 μl wash-buffer per well. Finally 50 μl Ellman's reagent is added to each well and the plate is incubated in the dark for 20 minutes. The absorbance is measured at 405 nm in an Envision multilabel reader and the amount of acylated ghrelin is calculated according to a acylated ghrelin standard curve provided in the same plate.
The analysis of the data is performed by calculation of the percentage of acyl-ghrelin produced in the presence of test compound compared to the amount of acyl-ghrelin produced in the vehicle control samples. An inhibitor of the GOAT enzyme will give values between 100% CTL (no inhibition) and 0% CTL (complete inhibition).
IC50 values are calculated with Assay Explorer or other suited software based on curve fitting of results of 8 different compound concentrations.
(In an ELISA, binding on a coated surface is turned into a signal by an enzyme label.)
With `Cc1nc2ncnn2c(N)c1Cc1ccc(C#N)c(NC2CC(F)(F)C2)n1` [Example 7.3], the 50% inhibitory concentration (IC50) worked out at 2.3 nM.
Molecule `Cc1nc2ncnn2c(N)c1Cc1ccc(Br)c(N2CCC(O)(C(F)(F)F)C2)n1` (stereo not drawn) [Example 23.5] displayed an IC50 of 0.83 nM. Against the preceding molecule, the IC50 is about 2.8-fold lower.
For the molecule `Cc1nc2ncnn2c(N)c1Cc1ccc(C(F)F)cc1` [Example 4.9], the IC50 turned out to be 9.8 nM.
Molecule `CCOc1nc(C(F)(F)F)ccc1Cc1c(C)nc2ncnn2c1N` [Example 4.7] came in with an IC50 of 2.9 nM.
Regarding `Nc1c(Cc2ccc(C(F)(F)F)cc2)c(C(F)F)nc2ncnn12` [Example 17.1, 5-(Difluoromethyl)-6-{[4-(trifluoromethyl)phenyl]methyl}-[1,2,4]triazolo[1,5-a]pyrimidin-7-amine], inhibition was half-maximal at 0.95 nM (IC50).
With `Cc1nc2ncnn2c(N)c1Cc1ccc(Br)c(N2CCC(C(F)(F)F)C2)n1` (stereo not drawn) [Example 23.4] the figure was 0.7 nM.
